The source of these data is patent US10604555B2, “GIP derivatives and uses thereof” (priority 2018, dated 2020).

Each structure is given as a SMILES string. *1 amine or outer side, *2 acyl side, *3 side chain or, on linkers, in order; H or OH if unused. Where a SMILES comes first, the peptide text is derived from it. Side-chain parts run from the residue outwards. [ ]: non-standard residue; d: D form. The star is where a group is joined. C18 diacid = O=C(O)CCCCCCCCCCCCCCCCC(=O)*; γGlu = O=C(O)[C@H](CCC(=O)[*:2])N[*:1]; Nle = CCCC[C@H](N)C(=O)O; AEEA = NCCOCCOCC(=O)O; Aib = CC(C)(N)C(=O)O

In this experiment the target is T1, human GIP receptor (Homo sapiens, UniProt P48546).
T1 construct: expressed in transfected cells; host or cells: BHK (parent line BHKTS13), BHK CRE luc2P hGIPR clone #5
T1 sequence (P48546 22-466): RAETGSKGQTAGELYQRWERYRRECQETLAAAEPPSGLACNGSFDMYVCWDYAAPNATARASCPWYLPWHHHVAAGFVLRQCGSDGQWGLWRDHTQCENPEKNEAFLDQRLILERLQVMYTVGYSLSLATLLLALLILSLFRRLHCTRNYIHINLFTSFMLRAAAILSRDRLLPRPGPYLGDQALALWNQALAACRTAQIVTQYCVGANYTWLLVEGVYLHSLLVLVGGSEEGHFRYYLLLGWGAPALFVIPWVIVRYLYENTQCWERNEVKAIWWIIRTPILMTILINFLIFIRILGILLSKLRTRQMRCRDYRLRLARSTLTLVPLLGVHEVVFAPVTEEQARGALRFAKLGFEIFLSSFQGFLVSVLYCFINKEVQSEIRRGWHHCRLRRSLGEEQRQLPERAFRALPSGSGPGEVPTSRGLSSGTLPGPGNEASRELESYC
Description: In vitro potency (CRE luciferase; whole cells), BHK CRE luc2P hGIPR. Type of experiment: cell-based. Particulars: 0.2% HSA. The procedure: In Vitro Potency (CRE Luciferase; Whole Cells)
The in vitro potency is the measure of human GIP, GLP-1 or glucagon receptor activation, respectively, in a whole cell assay.
In vitro potency was determined by measuring the response of the human GIP, GLP-1 or glucagon receptor in a reporter gene assay in individual cell lines. […] When the respective receptor is activated it results in the production of cAMP, which in turn results in the luciferase protein being expressed. When assay incubation is completed the luciferase substrate (luciferin) is added and the enzyme converts luciferin to oxyluciferin to produce bioluminescence. The luminescence is measured as the readout for the assay.
The cells were derived from a clone containing the CRE luciferase element and were established by further transfection with the respective receptor to obtain the current clone.
The cells were cultured at 5% CO2 in Cell Culture Medium. They were aliquoted and stored in liquid nitrogen. The cells were kept in passage and were seeded out the day before each assay.
The Assay Buffer consisted of 1% ovalbumin and 0.1% Pluronic F-68 in Assay Medium with the addition of human serum albumin at twice the indicated concentrations.
1) Cells were plated at 5000 cells/well and incubated overnight.
2) Cells were washed three times in PBS.
3) Assay Medium (50 μl aliquot) with or without serum albumin was added to each well in the assay plate.
4) Stocks of the test compounds and reference compounds were diluted to a concentration of 0.2 μM in Assay Buffer. […] 8) The cells were washed three times with PBS plus some liquid in each well. 9) A 100 μl aliquot of steadylite plus reagent was added to each well of the assay plate (reagent was light sensitive). 10) Each assay plate was covered with aluminum foil to protect it from light and shaken for 30 min at room temperature. 11) Each assay plate was read in a microtiter plate reader. Calculations and Results
The data from the microtiter plate reader was transferred to GraphPad Prism software. The software performs a non-linear regression (log(agonist) vs response).
A minimum of two replicates was measured for each sample. The reported values are averages of the replicates.
The molecule `CC[C@H](C)[C@H](NC(=O)[C@H](CO)NC(=O)[C@H](Cc1ccc(O)cc1)NC(=O)[C@H](CC(=O)O)NC(=O)[C@H](CO)NC(=O)[C@@H](NC(=O)[C@H](Cc1ccccc1)NC(=O)[C@@H](NC(=O)CNC(=O)[C@H](CCC(=O)O)NC(=O)[C@H](C)NC(=O)[C@@H](Cc1ccc(O)cc1)NC(C)=O)[C@@H](C)O)[C@@H](C)CC)C(=O)N[C@@H](C)C(=O)N[C@@H](CC(=O)O)C(=O)N[C@@H](CC(=O)O)C(=O)N[C@@H](CCCCN)C(=O)N[C@H](C(=O)N[C@@H](CCCNC(=N)N)C(=O)N[C@@H](CCC(N)=O)C(=O)N[C@@H](CCC(=O)O)C(=O)N[C@@H](CC(=O)O)C(=O)N[C@@H](Cc1ccccc1)C(=O)N[C@H](C(=O)N[C@@H](CCCCNC(=O)COCCOCCNC(=O)COCCOCCNC(=O)CC[C@H](NC(=O)CCCCCCCCCCCCCCCCC(=O)O)C(=O)O)C(=O)N[C@@H](Cc1c[nH]c2ccccc12)C(=O)N[C@@H](CC(C)C)C(=O)N[C@@H](CC(C)C)C(=O)N[C@@H](C)C(=O)N[C@@H](CCC(N)=O)C(=O)N[C@@H](CCCCN)C(=O)NCC(=O)O)C(C)C)[C@@H](C)CC` [Compound 19, N{1}-acetyl,N{Epsilon-24}-[2-[2-[2-[[2-[2-[2-[[(4S)-4-carboxy-4-(17-carboxyheptadecanoylamino)butanoyl]amino]ethoxy]ethoxy]acetyl]amino]ethoxy]ethoxy]acetyl]-[D-Tyr1,Asp14,Arg18,Glu20, Lys24]-hGIP(1-31)] (Ac-[dY]AEGTFISDYSIADDKIRQEDFVK([AEEA-AEEA-γGlu-C18 diacid])WLLAQKG-OH; C-terminus assumed) returned an EC50 of 0.0915 nM. Turning to `CCCC[C@H](NC(=O)[C@H](C)NC(=O)[C@@H](NC(=O)[C@H](CO)NC(=O)[C@H](Cc1ccc(O)cc1)NC(=O)[C@H](CC(=O)O)NC(=O)[C@H](CO)NC(=O)[C@@H](NC(=O)[C@H](Cc1ccccc1)NC(=O)[C@@H](NC(=O)CNC(=O)[C@H](CCC(=O)O)NC(=O)[C@H](C)NC(=O)[C@H](Cc1ccc(O)cc1)NC(C)=O)[C@@H](C)O)[C@@H](C)CC)[C@@H](C)CC)C(=O)N[C@@H](CC(=O)O)C(=O)N[C@@H](CCCCN)C(=O)N[C@H](C(=O)N[C@@H](CCCNC(=N)N)C(=O)N[C@@H](CCC(N)=O)C(=O)N[C@@H](CCC(N)=O)C(=O)N[C@@H](CC(=O)O)C(=O)N[C@@H](Cc1ccccc1)C(=O)N[C@H](C(=O)N[C@@H](CCCCNC(=O)CC[C@H](NC(=O)CC[C@H](NC(=O)CC[C@H](NC(=O)CCCCCCCCCCCCCCCCC(=O)O)C(=O)O)C(=O)O)C(=O)O)C(=O)N[C@@H](Cc1c[nH]c2ccccc12)C(=O)N[C@@H](CC(C)C)C(=O)N[C@@H](CC(C)C)C(=O)N[C@@H](C)C(=O)N[C@@H](CCC(N)=O)C(=O)N[C@@H](CCCCN)C(=O)NCC(=O)O)C(C)C)[C@@H](C)CC` [Compound 18, N{1}-acetyl,N{Epsilon-24}-[(4S)-4-carboxy-4-[[(4S)-4-carboxy-4-[[(4S)-4-carboxy-4-(17-carboxyheptadecanoylamino)butanoyl]amino]butanoyl]amino]butanoyl]-[Nle14,Arg18,Lys24]-hGIP(1-31)], the EC50 was 0.546 nM. In the case of `CCCC[C@H](NC(=O)[C@H](C)NC(=O)[C@@H](NC(=O)[C@H](CO)NC(=O)[C@H](Cc1ccc(O)cc1)NC(=O)[C@H](CC(=O)O)NC(=O)[C@H](CO)NC(=O)[C@@H](NC(=O)[C@H](Cc1ccccc1)NC(=O)[C@@H](NC(=O)CNC(=O)[C@H](CCC(=O)O)NC(=O)C(C)(C)NC(=O)[C@@H](N)Cc1ccc(O)cc1)[C@@H](C)O)[C@@H](C)CC)[C@@H](C)CC)C(=O)N[C@@H](CC(=O)O)C(=O)N[C@@H](C)C(=O)N[C@H](C(=O)N[C@@H](CCCNC(=N)N)C(=O)N[C@@H](CCC(N)=O)C(=O)N[C@@H](CCC(N)=O)C(=O)N[C@@H](CC(=O)O)C(=O)N[C@@H](Cc1ccccc1)C(=O)N[C@H](C(=O)N[C@@H](CCCCNC(=O)CC[C@H](NC(=O)CC[C@H](NC(=O)CC[C@H](NC(=O)CCCCCCCCCCCCCCCCC(=O)O)C(=O)O)C(=O)O)C(=O)O)C(=O)N[C@@H](Cc1c[nH]c2ccccc12)C(=O)N[C@@H](CC(C)C)C(=O)N[C@@H](CC(C)C)C(=O)N[C@@H](C)C(=O)N[C@@H](CCC(N)=O)C(=O)N[C@@H](CCCCN)C(=O)NCC(=O)O)C(C)C)[C@@H](C)CC` [Compound 13, N{Epsilon-24}-[(4S)-4-carboxy-4-[[(4S)-4-carboxy-4-[[(4S)-4-carboxy-4-(17-carboxyheptadecanoylamino)butanoyl]amino]butanoyl]amino]butanoyl]-[Aib2,Nle14,Ala16,Arg18,Lys24]-hGIP(1-31)] (H-Y[Aib]EGTFISDYSIA[Nle]DAIRQQDFVK([γGlu-γGlu-γGlu-C18 diacid])WLLAQKG-OH; N-terminus and C-terminus assumed) it was 0.0725 nM.
